From patent US10398751B2, “Pharmaceutical compositions of water soluble peptides with poor solubility in isotonic conditions and methods for their use” (STRONGBRIDGE IRELAND LIMITED, priority 2016, dated 2019)
Converted amounts (≈) assume the structure as drawn. Where two headings read alike, the source gives them in different places.

Tests used:
[1] = Solubility and surface activity in PBS under physiological conditions (37° C.); format: physicochemical; conditions: COR005 10 mg/ml; for Surface tension (dyne/cm) / Effect of surface tension (% of baseline): PBS pH 7.4, 37° C.; for solubility: PBS, pH 7.4, PBS pH 7.4, 37° C.
Method: Table 6 summarizes the effects of additives on the surface activity profile of COR005 acetate under physiological conditions (37° C.) that emulate the release of COR005 at the injection site.

[2] = Pharmacokinetics of IR formulations in minipigs; format: in vivo; conditions: minipig, plasma, sc; for bioavailability: read-out: Minipigs absolute BA (F %)
[3] = in vivo; set-up: species or system rats; conditions: HSD:Sprague Dawley SD, rat, sc, 3 mg/kg
Method: The lactic acid vehicle for use in the formulations as shown in Table 7 below was prepared as follows: Formulations for injection into rats were prepared as summarized in Table 8. Subject rats (mean weight of about 370 grams per subject) were injected according to the above dosing schedule in groups of 5 rats per treatment. Baseline tail bleed samples were drawn from the rats at 2 days prior to dosing. […] Blood samples were approximately 300 uL of whole blood collected in commercial K3 EDTA-coated tubes. Subject rats were also observed for injection site reactions for up to 5-7 days post-dosing. Blood samples were kept on ice following collection until the time of centrifugation. Blood samples were processed within 60 minutes from blood collection. Samples were centrifuged at 3000 G for 15 minutes in a refrigerated centrifuge (5° C.). Plasma was withdrawn from the tubes after centrifugation and placed into new, appropriately labeled tubes and stored at −65° C. to −80° C. until transfer. […] Veldoreotide acetate standard was serially diluted with methanol:water (1:9) and added to blank rat plasma to generate calibration standards and QC samples. The calibration samples were stored at −70° C. Frozen samples were then thawed to room temperature. Blank plasma and reagent blank (water) were also prepared. For each 100 uL aliquot of sample, calibrator or QC sample, 25 uL (˜100 ng/mL) of internal standard (octreotide acetate) in methanol:water (1:9) and 600 uL of acetonitrile:formic acid (99:1) were added and the samples vortex mixed for 30 seconds. Samples were diluted by mixing 20 uL of plasma sample with 180 uL of blank plasma and aliquotted at 100 uL prior to addition of the internal standard and acetonitrile:formic acid solutions. Samples were then centrifuged for 10 minutes at 14,000 rpm at 8° C. 450 uL of the upper (organic) layer was then transferred to evaporation tubes and evaporated under nitrogen at about 50° C. Samples were then reconstituted in 200 uL of reconstitution solution (water:acetonitrile:formic acid at 70:30:0.2). Samples were centrifuged for 10 minutes at 4000 rpm at 8° C. 160 uL of each sample was withdrawn and placed in an autosampler vial with conic glass insert and analyzed via LC-MS/MS. Veldoreotide acetate plasma concentrations were then plotted and analyzed using standard pharmacokinetic techniques.

[4] = Emulsification of cottonseed oil and water for injection; format: physicochemical; conditions: 16.6 weight % cottonseed oil, 74.2 weight % WFI, 9.2 weight % peptide, room temperature
Method: Based on its amphiphilic properties, veldoreotide acetate was evaluated by means of emulsion formulation. […] Thus, veldoreotide acetate may be considered a w/o ionic surfactant or hydrotrope with a hydrophilic lipophilic balance (HLB) of 6.
The samples were mixed using 25G syringe and vortexed at room temperature.
Veldoreotide was formulated as a water in oil emulsion using 80% (wt %) cottonseed oil, 20% (wt %) water for injection (WFI) and 1% (wt %) veldoreotide acetate. Specifically, 10 mg of veldoreotide acetate was dissolved in 200 uL WFI in a 5 mL glass vial, 800 mg of cottonseed oil was added and the resulting mixture was stirred under magnetic stirring at room temperature for 15 minutes at 1000 rpm. The emulsion was then viewed under the light microscope and stored under refrigeration. The resulting emulsion was stable and found to be injectable via 27G needle.

[5] = Density, pH and surface tension of solutions (capillary method); format: physicochemical; conditions: DDW, 25° C., baseline 64.9 dyne/cm
Method: Tween 80 was used as a control surfactant for comparison. Densities were measured on 1 mL fixed volume samples. […] The effect of veldoreotide acetate on the pH of double distilled water (DDW) was the same at all veldoreotide acetate concentrations. The pH of DDW of 5.0 was reduced to pH 4.5. The effect of veldoreotide acetate on the density of DDW (starting density of DDW was 1.003 g/ml) was concentration dependent from 1.4 mg/ml to 21.5 mg/ml with density ranging from 0.986 to 0.998 g/ml respectively. However, at veldoreotide acetate concentrations of 45 and 102 mg/ml the density was increased above the starting density of DDW. […] The effect of veldoreotide acetate on the surface tension of DDW (starting surface tension was 64.9 dyne/cm) was consistent with veldoreotide acetate behaving as a peptide amphiphile (surfactant). The surface tension of DDW was reduced by veldoreotide acetate at maximum from 64.9 to 45 dyne/cm. In order to elucidate the meaning of this effect, Tween 80 was used as a reference surfactant. Other surfactants include Polexamer 188. The reduction of surface tension induced by Tween 80 was in the range of 40% (from 64.9 dyne/cm to about 39 dyne/cm), in comparison to veldoreotide acetate of 30% (from 64.9 dyne/cm to about 45 dyne/cm). Note that, under these experimental conditions; the effect of Tween 80 indicated a concentration-effect relationship. Whereas, the effect of veldoreotide acetate on the reduction of surface tension was at the same range for all concentrations tested.
The data of table 4 show the surface activity of highly concentrated COR005 acetate (200 mg/ml), with or without additives in WFI, which emulates the preparation conditions of the primary emulsion of the microspheres. The results of Test 1 and 2 (Table 4) show the effect of COR005 acetate on the surface tension of water. When COR005 acetate is dissolved in water the surface tension is reduced by about 36%, from 68.5 dyne/cm for the water alone to 44 dyne/cm for the solution of water with CR005 acetate at 200 mg/ml.

[6] = 0.4 mg/kg, IR, SC, 0.4 mg/Kg, DEX:PEP 5:1 saline
[7] = 0.4 mg/kg, IR, SC, 0.4 mg/Kg, HPB:PEP 15:1 saline

Compound: C[C@@H](O)[C@@H]1NC(=O)[C@H](CCCCN)NC(=O)[C@@H](Cc2c[nH]c3ccccc23)NC(=O)[C@H](Cc2c[nH]c3ccccc23)NC(=O)[C@H](Cc2ccccc2)NC(=O)CCCNC(=O)CCCN(CC(N)=O)C(=O)[C@H](Cc2ccccc2)NC1=O [Veldoreotide, cyclo(-γ-aminobutyryl-L-phenylalanyl-L-tryptophanyl-D-tryptophanyl-L-lysyl-L-threonyl-L-phenylalanyl-N-carbamoylmethyl-γ-aminobutyryl)]
- Surface tension (dyne/cm) ([1]; Dextrose 5 wt %): 49 dyne/cm
- Effect of surface tension (% of baseline) ([1]; Dextrose 5 wt %, at 48 h): (−18% at 48 h)
- Effect of surface tension (% of baseline) ([1]; Dextrose 5 wt %, baseline PBS/5% DEX): −14%
- Surface tension (dyne/cm) ([1]; HPB:PEP 1:2): 45 dyne/cm
- Effect of surface tension (% of baseline) ([1]; HPB:PEP 1:2, baseline PBS): −6%
- Effect of surface tension (% of baseline) ([1]; HPB:PEP 1:4, baseline PBS): −19%
- Surface tension (dyne/cm) ([1]; HPB:PEP 10:1): 50 dyne/cm
- Effect of surface tension (% of baseline) ([1]; HPB:PEP 10:1, baseline PBS): +4%
- Effect of surface tension (% of baseline) ([1]; no additive, baseline PBS): −29%
- solubility ([1]; Dextrose 5 wt %): 3300 µg/mL (≈ 2.94 mM)
- solubility ([1]; HPB:PEP 1:2): 5000 µg/mL (≈ 4.45 mM)
- solubility ([1]; HPB:PEP 1:4): 3900 µg/mL (≈ 3.47 mM)
- solubility ([1]; HPB:PEP 10:1): 8900 µg/mL (≈ 7.92 mM)
- solubility ([1]; no additive): 3600 µg/mL (≈ 3.2 mM)
- bioavailability ([2]; 0.1 mg/kg, IR, SC, 0.1 mg/Kg, DEX:PEP 5:1 saline): 91%
- bioavailability ([2]; 0.1 mg/kg, pH 4, IR, SC, 0.1 mg/Kg, Lactic acid buffer pH 4): 45%
- Cmax [2, 6]: 238 ng/mL
- bioavailability [2, 6]: 88.4%
- Cmax [2, 7]: 255 ng/mL
- bioavailability [2, 7]: 85.3%
- bioavailability ([2]; 0.4 mg/kg, pH 4, IR, SC, 0.4 mg/Kg, Lactic acid buffer pH 4): 69%
- Cmax ([2]; 0.4 mg/kg, pH 4, IR, Lactic acid buffer pH 4): 108 ng/mL
- Cmax ([3]; Rats Cmax (ng/ml)): 544 ng/mL
- Cmax ([3]; pH 4, Rats Cmax (ng/ml)): 345 ng/mL
- emulsification [4]: allowing an emulsion to form
- reduction of surface tension of water [5]: more than 30%
